# Results published in ChEMBL document CHEMBL5257089, “Gamabufotalin Induces Apoptosis and Cytoprotective Autophagy through the mTOR Signaling Pathway in Hepatocellular Carcinoma” (J Nat Prod, 2023).
# Activity calls are given as the source filed them. The calls are words filed in the database; no cut-off is given here.
# Tests used:
# Hep 3B2 [1] = experiment: Induction of apoptosis in human Hep3B cells assessed as early apoptotic cells at 10 nM incubated for 48 hrs in presence of gamabufotalin by Annexin V-FITC/PI staining based flow cytometry method (reference value: 1.3%); assay type: functional
# Huh-7 [2] = experiment: Induction of apoptosis in human Huh-7 cells assessed as late apoptotic cells at 10 nM incubated for 48 hrs by Annexin V-FITC/PI staining based flow cytometry method (reference value: 4.7%); assay type: functional
# Hep 3B2 [3] = experiment: Induction of apoptosis in human Hep3B cells assessed as increase in cleaved PARP level at 10 nM incubated for 48 hrs in presence of gamabufotalin by immunoblot analysis; assay type: functional, cell-based
# Hep 3B2 [4] = experiment: Induction of apoptosis in human Hep3B cells assessed as increase in cleaved caspase-3 level at 10 nM incubated for 48 hrs in presence of gamabufotalin by immunoblot analysis; assay type: functional, cell-based
# Huh-7 [5] = experiment: Induction of apoptosis in human Huh-7 cells assessed as increase in PARP level at 10 nM incubated for 48 hrs in presence of gamabufotalin by immunoblot analysis; assay type: functional, cell-based
# Huh-7 [6] = experiment: Induction of autophagic flux in human Huh-7 cells harbouring mCherry-egfp-LC3 assessed as reduction in number of yellow puncta ratio at 10 nM incubated for 15 mins in presence of gamabufotalin by laser scanning confocal microscopic analysis; assay type: functional, cell-based
# Hep 3B2 [7] = experiment: Induction of autophagic flux in human Hep3B cells harbouring mCherry-egfp-LC3 assessed as reduction in number of red puncta ratio at 10 nM incubated for 15 mins in presence of gamabufotalin by laser scanning confocal microscopic analysis; assay type: functional, cell-based
# Hep 3B2 [8] = experiment: Inhibition of colony formation in human Hep3B cells at upto 25 uM incubated for 48 hrs by crystal violet staining based analysis; assay type: functional, cell-based
# Hep 3B2 [9] = experiment: Induction of apoptosis in human Hep3B cells assessed as viable cells at 20 nM incubated for 48 hrs by Annexin V-FITC/PI staining based flow cytometry method (reference value: 93.3%); assay type: functional; conditions: read-out: Activity
# Hep 3B2 [10] = experiment: Induction of apoptosis in human Hep3B cells assessed as late apoptotic cells at 20 nM incubated for 48 hrs by Annexin V-FITC/PI staining based flow cytometry method (reference value: 2.6%); assay type: functional
# Huh-7 [11] = experiment: Induction of apoptosis in human Huh-7 cells assessed as necrotic cells at 15 nM incubated for 48 hrs by Annexin V-FITC/PI staining based flow cytometry method (reference value: 95.4%); assay type: functional
# Huh-7 [12] = experiment: Induction of apoptosis in human Huh-7 cells assessed as early apoptotic cells at 15 nM incubated for 48 hrs by Annexin V-FITC/PI staining based flow cytometry method (reference value: 1.7%); assay type: functional
# Huh-7 [13] = experiment: Induction of apoptosis in human Huh-7 cells assessed as late apoptotic cells at 15 nM incubated for 48 hrs by Annexin V-FITC/PI staining based flow cytometry method (reference value: 2.2%); assay type: functional
# Hep 3B2 [14] = experiment: Induction of apoptosis in human Hep3B cells assessed as increase in cleaved PARP expression at upto 25 nM incubated for 48 hrs by Western blot analysis; assay type: functional, cell-based
# Hep 3B2 [15] = experiment: Induction of apoptosis in human Hep3B cells assessed as late apoptotic cells at 25 nM measured after 48 hrs by annexin V-FITC/Propidium iodide staining based flow cytometric analysis (reference value: 2.4%); assay type: functional
# Hep 3B2 [16] = experiment: Induction of autophagic flux in human Hep3B cells harbouring mCherry-egfp-LC3 assessed as increase in yellow puncta at 25 nM incubated for 15 mins by laser scanning confocal microscopic analysis; assay type: functional, cell-based
# Huh-7 [17] = experiment: Induction of autophagic flux in human Huh-7 cells assessed as increase in high electron density vesicles at 25 nM incubated for 48 hrs by transmission electron microscopic analysis; assay type: functional, cell-based
# Huh-7 [18] = experiment: Induction of autophagic flux in human Huh-7 cells assessed as rescue of LC3-I accumulation at 25 uM incubated for 48 hrs in presence of chloroquine by Western blot analysis; assay type: functional, cell-based
# Huh-7 [19] = experiment: Induction of apoptosis in human Huh-7 cells assessed as early apoptotic cells at 25 nM incubated for 48 hrs in presence of chloroquine by Annexin V-FITC/PI staining based flow cytometry method (reference value: 2.8%); assay type: functional
# Huh-7 [20] = experiment: Induction of apoptosis in human Huh-7 cells assessed as late apoptotic cells at 25 nM incubated for 48 hrs in presence of chloroquine by Annexin V-FITC/PI staining based flow cytometry method (reference value: 4.7%); assay type: functional
# Hep 3B2 [21] = experiment: Induction of apoptosis in human Hep3B cells assessed as increase in caspase-3 level at 25 nM incubated for 48 hrs in presence of chloroquine by immunoblot analysis; assay type: functional, cell-based
# Huh-7 [22] = experiment: Induction of apoptosis in human Huh-7 cells assessed as increase in cleaved PARP level at 25 nM incubated for 48 hrs in presence of chloroquine by immunoblot analysis; assay type: functional, cell-based
# Huh-7 [23] = experiment: Induction of apoptosis in human Huh-7 cells assessed as increase in cleaved caspase-3 level at 25 nM incubated for 48 hrs in presence of chloroquine by immunoblot analysis; assay type: functional, cell-based
# Hep 3B2 [24] = experiment: Induction of apoptosis in human Hep3B cells assessed as early apoptotic cells at 25 nM measured after 48 hrs by Annexin V-FITC/PI staining based flow cytometry method (reference value: 1.3%); assay type: functional
# Hep 3B2 [25] = experiment: Induction of apoptosis in human Hep3B cells assessed as upregulation of PARP level […] incubated for 48 hrs in presence of 4,6-dimorpholino-N-(4-nitrophenyl)-1,3,5-triazin-2-amine by immunoblot analysis; assay type: functional, cell-based
# Hep 3B2 [26] = experiment: Induction of apoptosis in human Hep3B cells assessed as upregulation of caspase-3 level […] incubated for 48 hrs in presence of 4,6-dimorpholino-N-(4-nitrophenyl)-1,3,5-triazin-2-amine by immunoblot analysis; assay type: functional, cell-based
# Hep 3B2 [27] = experiment: Induction of autophagy in human Hep3B cells assessed as reduction in mTOR phosphorylation level incubated for 48 hrs by immunoblot method; assay type: functional, cell-based; conditions: dose 0-25 nM
# Huh-7 [28] = experiment: Induction of autophagy in human Huh-7 cells harbouring mCherry-egfp-LC3 assessed as reduction in yellow puncta ratio at 25 nM incubated for 15 mins in presence of 4,6-dimorpholino-N-(4-nitrophenyl)-1,3,5-triazin-2-amine by laser scanning confocal microscopic analysis; assay type: functional, cell-based
# Hep 3B2 [29] = experiment: Induction of autophagy in human Hep3B cells assessed as restoration of mTOR phosphorylation expression at 25 uM incubated for 48 hrs in presence of 4,6-dimorpholino-N-(4-nitrophenyl)-1,3,5-triazin-2-amine by immunoblot analysis; assay type: functional, cell-based
# Huh-7 [30] = experiment: Induction of autophagic flux in human Huh-7 cells harbouring mCherry-egfp-LC3 assessed as reduction in number of yellow puncta ratio at 25 nM incubated for 15 mins in presence of chloroquine by laser scanning confocal microscopic analysis; assay type: functional, cell-based
# Hep 3B2 [31] = experiment: Antitumor activity against human Hep3B cells xenografted in nude mouse model assessed as upregulation of bax expression at 5 mg/kg,ip administered every second day for 3 weeks by Western blot analysis; assay type: functional, organism-based
# Hep 3B2 [32] = experiment: Antitumor activity against human Hep3B cells xenografted in nude mouse model assessed as upregulation of LC3I expression at 5 mg/kg,ip administered every second day for 3 weeks by Western blot analysis; assay type: functional, organism-based
# [33] = Toxicity in mouse assessed as effect on serum CERA level at 5 mg/kg,ip administered every second day for 3 weeks by H and E staining based microscopic method; assay type: organism-based; conditions: in vivo, 504 h
smiles,measurement,setting,value
CCN(CC)CCCC(C)Nc1ccnc2cc(Cl)ccc12 (stereo not drawn) [CHLOROQUINE],Activity,Hep 3B2 [1],17.9%
same,Activity,Huh-7 [2],4.9%
same,Activity,Hep 3B2 [3],Active
same,Activity,Hep 3B2 [4],Active
same,Activity,Huh-7 [5],Active
same,Activity,Huh-7 [6],Active
same,Activity,Hep 3B2 [7],Active
C[C@]12CC[C@H](O)C[C@H]1CC[C@@H]1[C@@H]2[C@H](O)C[C@]2(C)[C@@H](c3ccc(=O)oc3)CC[C@]12O [GAMABUFOTALIN],inhibition,Hep 3B2 [8],Active
same,viability at 0.02 µM,Hep 3B2 [9],88.7%
same,Activity,Hep 3B2 [10],5.2%
same,Activity,Huh-7 [11],67.6%
same,Activity,Huh-7 [12],4%
same,Activity,Huh-7 [13],24.4%
same,Activity,Hep 3B2 [14],Active
same,Activity,Hep 3B2 [15],13.2%
same,Activity,Hep 3B2 [16],Active
same,Activity,Huh-7 [17],Active
same,Activity,Huh-7 [18],Active
same,Activity,Huh-7 [19],12.1%
same,Activity,Huh-7 [20],19.1%
same,Activity,Hep 3B2 [21],Active
same,Activity,Huh-7 [22],Active
same,Activity,Huh-7 [23],Active
same,Activity,Hep 3B2 [24],11.4%
same,Activity,Hep 3B2 [25],Active
same,Activity,Hep 3B2 [26],Active
same,Activity,Hep 3B2 [27],Dose-Dependent Effect
same,Activity,Huh-7 [28],Active
same,Activity,Hep 3B2 [29],Active
same,Activity,Huh-7 [30],Active
same,Activity,Hep 3B2 [31],Active
same,Activity,Hep 3B2 [32],Active
same,Activity,[33],Non-Toxic
